The target in experiment [1] is T1, murine recombinant apoM (r-apoM) (Mus musculus, UniProt Q9Z1R3).
T1 construct: A truncated mouse r-apoM containing the lipocalin domain but lacking the hydrophobic signal peptide was produced in Escherichia coli; made in house; host or cells: Escherichia coli
Briefly: intrinsic fluorescence quenching of r-apoM by S1P. In kind it is binding. The settings on record: r-apoM 0.7 μM; S1P 0-3.2 μmol/L; excitation 295 nm, emission 345 nm. The procedure: FIG. 3. […] A truncated mouse r-apoM containing the lipocalin domain but lacking the hydrophobic signal peptide was produced in Escherichia coli. The r-apoM (0.7 μM) was incubated with increasing concentrations of S1P (final concentration: 0-3.2 μmol/L). The intrinsic fluorescence of apoM was measured with excitation at 295 nm and emission at 345 nm. The data are mean±SEM (n=3).
Intrinsic fluorescence quenching was studied after addition of S1P to 0.7 μM murine recombinant apoM (r-apoM) (SEVVANA et al., J. Mol. Biol, 393:920-936 (2009)). Because it is possible that murine r-apoM binds and contains myristic acid in a manner similar to that of its human counterpart (SEVVANA et al., J. Mol. Biol, 393:920-936 (2009)), the binding data are reported as IC50 values. This approach also allows S1P binding to murine r-apoM to be compared directly with the previous data on human apoM-S1P binding.

The next experiment concerns the target T2, recombinant human apoM (Homo sapiens, UniProt O95445).
T2 construct: host or cells: E. coli
The conditions noted are these: recombinant human apoM expressed in E. coli; SEVVANA et al. 2009; read-out: IC50 for displacement of myristic acid from apoM; cited from earlier work.

Experiment [2] has as its system HUVEC. Kind of experiment: HUVEC migration (chemotaxis chamber) assay. In kind it is cell-based, human. The procedure:
FIG. 4. ApoM-bound S1P activates S1P1-mediated intracellular signaling pathways and affects migration of HUVEC. (A) Confocal microscopy of HEK293 cells stably expressing S1P1-GFP. Cells were serum starved, stimulated for 1 h with indicated ligands, fixed and imaged. ApoM^+HDL (equivalent to ˜100 nM S1P as determined by LC/MS/MS) or ApoM^−HDL was used at 100 μg/ml. Fatty acid free BSA and r-apoM were complexed with S1P and used at the final concentration of 100 nM (equimolar for both protein and lipid). Scale bar, 20 μm. […] Activation of p44/42, and Akt was examined by western blot analysis using phospho-specific antibodies. (C) HUVEC were serum starved and pre-treated with 1 μM VPC44116 for 30 min where indicated and subjected to migration assay with 10 μg/ml apoM^+HDL (10 nM S1P) or 10 μg/ml apoM^−HDL or 10 nM albumin-S1P. Data are mean±SD, n=3. * p<0.01. (D) Microscopy of HUVEC that were serum starved and stimulated with 100 μg/ml apoM^+HDL, apoM^−HDL, 100 nM albumin-S1P, r-apoM-S1P or 100 nM S1P-free r-apoM for 1 h. […] Scale bar, 20 μm. […]
General Methods. […] Numerical differences were analyzed with two-tailed Student's t test.
Migration Assays. […] The filter was scanned, and the color density of each well was quantified using ImageJ software. […]

In the next experiment the test system is endogenous S1P1 receptor. Briefly: p44/42 and Akt activation in HUVEC (western blot, phospho-specific antibodies). In kind it is cell-based, human. The conditions noted are these: 1 μM VPC44116 pre-treatment 30 min. As to the method:
(§1) FIG. 4. ApoM-bound S1P activates S1P1-mediated intracellular signaling pathways and affects migration of HUVEC. (A) Confocal microscopy of HEK293 cells stably expressing S1P1-GFP. Cells were serum starved, stimulated for 1 h with indicated ligands, fixed and imaged. ApoM^+HDL (equivalent to ˜100 nM S1P as determined by LC/MS/MS) or ApoM^−HDL was used at 100 μg/ml. Fatty acid free BSA and r-apoM were complexed with S1P and used at the final concentration of 100 nM (equimolar for both protein and lipid). Scale bar, 20 μm. […] Activation of p44/42, and Akt was examined by western blot analysis using phospho-specific antibodies. (C) HUVEC were serum starved and pre-treated with 1 μM VPC44116 for 30 min where indicated and subjected to migration assay with 10 μg/ml apoM^+HDL (10 nM S1P) or 10 μg/ml apoM^−HDL or 10 nM albumin-S1P. Data are mean±SD, n=3. * p<0.01. (D) Microscopy of HUVEC that were serum starved and stimulated with 100 μg/ml apoM^+HDL, apoM^−HDL, 100 nM albumin-S1P, r-apoM-S1P or 100 nM S1P-free r-apoM for 1 h. […] Scale bar, 20 μm. HUVEC were serum starved and stimulated for 5 min with 30 nM albumin-S1P, r-apoM-S1P, 10 μg/mL ApoM+ HDL, or 30 nM S1P-free r-apoM (E) or with increasing concentrations of albumin or r-apoM-S1P (F). […]
(§2) General Methods. […] Numerical differences were analyzed with two-tailed Student's t test. […]
(In general: In western blotting, separated proteins are transferred to a membrane and probed.)

For a further experiment, the target named is T3, S1P1 receptor (Homo sapiens, UniProt P21453).
T3 construct: expressed in transfected cells
Kind of experiment: S1P1 internalization in HEK293 cells stably expressing S1P1-GFP. The experiment is classed as cell-based. The settings on record: stimulated 1 h; HDL 100 μg/ml; S1P complexes 100 nM. The procedure: as §1, §2

Experiment [3] relates to HUVEC. Kind of experiment: adherens junction assembly assay (VE-cadherin immunostaining) in HUVEC. The experiment is classed as cell-based, human. The settings on record: HUVEC stimulated 1 h; HDL 100 μg/ml; S1P complexes or r-apoM 100 nM. The procedure: as §1, with “(F). Activation of p44/42 and Akt was examined by Western blot analysis using phospho-specific antibodies.” for “(F).”

For orientation: pIC50 means the negative decadic logarithm of the IC50, by convention in mol/L.

pIC50: −log10 of the molar value.

T2 sequence (O95445 whole entry): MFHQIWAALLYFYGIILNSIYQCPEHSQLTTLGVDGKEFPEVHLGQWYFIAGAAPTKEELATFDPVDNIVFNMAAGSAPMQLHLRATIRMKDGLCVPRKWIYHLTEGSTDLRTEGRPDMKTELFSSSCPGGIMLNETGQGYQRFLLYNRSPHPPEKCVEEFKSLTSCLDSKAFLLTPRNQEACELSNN
T3 sequence (P21453 whole entry): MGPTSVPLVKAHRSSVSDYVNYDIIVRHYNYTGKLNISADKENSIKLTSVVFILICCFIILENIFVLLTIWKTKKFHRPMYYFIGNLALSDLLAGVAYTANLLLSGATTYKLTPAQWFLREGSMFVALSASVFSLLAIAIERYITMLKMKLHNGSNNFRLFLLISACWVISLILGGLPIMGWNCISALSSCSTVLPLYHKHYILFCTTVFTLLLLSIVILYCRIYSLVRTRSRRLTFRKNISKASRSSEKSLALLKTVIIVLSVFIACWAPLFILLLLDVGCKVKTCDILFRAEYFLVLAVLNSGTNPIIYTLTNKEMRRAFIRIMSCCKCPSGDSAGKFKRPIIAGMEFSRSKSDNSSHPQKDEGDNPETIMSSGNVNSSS
T1 sequence (Q9Z1R3 22-190): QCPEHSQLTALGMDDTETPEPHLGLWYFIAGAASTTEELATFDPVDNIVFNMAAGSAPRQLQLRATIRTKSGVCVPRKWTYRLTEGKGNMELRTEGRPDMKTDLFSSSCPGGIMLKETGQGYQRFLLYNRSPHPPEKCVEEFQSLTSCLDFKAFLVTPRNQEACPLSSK

As for `CCCCCCCCCCCCC/C=C/[C@@H](O)[C@@H](N)COP(=O)(O)O` [S1P, Sphingosine-1-phosphate], the “quenching of intrinsic fluorescence of mouse r-apoM” value in experiment [1] is listed as “quenches the intrinsic fluorescence”. Besides, the pIC50 on recombinant human apoM was 6.05.
As for `CCCCCCCCc1cccc(NC(=O)[C@H](N)CCP(=O)(O)O)c1` [VPC44116], the “effect of S1P1 antagonist pre-treatment on apoM+HDL-stimulated chemotaxis” value in the experiment on HUVEC [2] (1 μM VPC44116 for 30 min, 10 μg/ml apoM+HDL) was “abolished”. For the same molecule, the “effect of S1P1 antagonist on apoM+HDL-induced p44/42 and Akt phosphorylation” value in the experiment on endogenous S1P1 receptor is on record as “essentially abolished”. Further, the “effect of S1P1 antagonist on cells stimulated by FCS” value with endogenous S1P1 receptor (FCS stimulation) is listed as “no inhibitory effects”.
Regarding “albumin-bound S1P: S1P complexed with equi-molar fatty acid free bovine serum albumin, used as a positive control [reference compound]”, in the experiment with HUVEC [2] (serum-starved HUVEC, 4 h at 37° C.), the “chemotaxis of HUVEC toward chemoattractant” value is on record as “worked as chemoattractants in a concentration-dependent manner”. The “internalization of GFP-S1P1 receptor” value with S1P1 receptor was “robust internalization”. Besides, the “adherens junction and F-actin formation” value in the experiment on HUVEC [3] is “well-spread, contained F-actin and formed adherens junctions”.

The values are drawn from patent US9592268B2, “Endothelium protective materials and methods of use” (CORNELL UNIVERSITY, priority 2011, dated 2017).
